Data taken from ChEMBL document CHEMBL4619756, “Design, synthesis and biological evaluation of N-hydroxy-aminobenzyloxyarylamide analogues as novel selective κ opioid receptor antagonists” (Bioorg Med Chem Lett, 2020).
pIC50, pKi: −log10 of the molar value.

Legend:
[1] = target: T1, Mu-type opioid receptor (Homo sapiens, UniProt P35372); assay: Displacement of [3H]-DAMGO from human mu opiod receptor expressed in CHO cells at 10 uM incubated for 60 mins by liquid scintillation counting method relative to control; type: cell-based
[2] = target: T2, Delta-type opioid receptor (Homo sapiens, UniProt P41143); assay: Displacement of [3H]-DPDPE from human delta opiod receptor expressed in human HEK293 cells at 1 uM incubated for 60 mins by liquid scintillation counting method relative to control; type: cell-based
[3] = target: T3, Kappa-type opioid receptor (Homo sapiens, UniProt P41145); assay: Displacement of [3H]-U69593 from human kappa opiod receptor expressed in CHO cells at 1 uM incubated for 60 mins by liquid scintillation counting method relative to control; type: cell-based
[4] = target: T3, Kappa-type opioid receptor; assay: Displacement of [3H]-U69593 from human kappa opiod receptor expressed in CHO cells at 10 uM incubated for 60 mins by liquid scintillation counting method relative to control; type: cell-based
[5] = target: T1, Mu-type opioid receptor; assay: Displacement of [3H]-DAMGO from human mu opiod receptor expressed in CHO cells at 1 uM incubated for 60 mins by liquid scintillation counting method relative to control; type: cell-based
[6] = target: T2, Delta-type opioid receptor; assay: Displacement of [3H]-DPDPE from human delta opiod receptor expressed in human HEK293 cells at 10 uM incubated for 60 mins by liquid scintillation counting method relative to control; type: cell-based
[7] = target: T1, Mu-type opioid receptor; assay: Displacement of [3H]-DAMGO from human mu opiod receptor expressed in CHO cells incubated for 60 mins by liquid scintillation counting method; type: cell-based
[8] = target: T3, Kappa-type opioid receptor; assay: Displacement of [3H]-U69593 from human kappa opiod receptor expressed in CHO cells incubated for 60 mins by liquid scintillation counting method; type: cell-based
[9] = organism: Homo sapiens; assay: Selectivity index, ratio of Ki for human delta opiod receptor expressed […] for human kappa opiod receptor expressed in CHO cells; type: cell-based
[10] = target: T2, Delta-type opioid receptor; assay: Displacement of [3H]-DPDPE from human delta opiod receptor expressed in human HEK293 cells incubated for 60 mins by liquid scintillation counting method; type: cell-based
[11] = organism: Homo sapiens; assay: Selectivity index, ratio of Ki for human mu opiod receptor expressed in CHO cells to Ki for human kappa opiod receptor expressed in CHO cells; type: cell-based
[12] = organism: Homo sapiens; assay: Selectivity index, ratio of IC50 for human mu opiod receptor expressed in CHO cells to IC50 for human kappa opiod receptor expressed in CHO cells; type: cell-based
[13] = target: T3, Kappa-type opioid receptor; assay: Antagonist activity at human kappa opiod receptor expressed in CHO cells assessed as inhibition of U69593-induced [35S]GTPgammaS binding incubated for 4 hrs by microbeta liquid scintillation counting method; type: functional, cell-based
[14] = target: T1, Mu-type opioid receptor; assay: Antagonist activity at human mu opiod receptor expressed in CHO cells assessed as inhibition of DAMGO-induced [35S]GTPgammaS binding incubated for 4 hrs by microbeta liquid scintillation counting method; type: functional, cell-based
[15] = target: T2, Delta-type opioid receptor; assay: Antagonist activity at human delta opiod receptor expressed in human HEK293 cells assessed as inhibition of DPDPE-induced [35S]GTPgammaS binding incubated for 2 hrs by microbeta liquid scintillation counting method; type: functional, cell-based
[16] = organism: Homo sapiens; assay: Selectivity index, ratio of IC50 for human delta opiod receptor expressed in HEK293 cells to IC50 for human kappa opiod receptor expressed in CHO cells

T1 sequence (P35372 whole entry): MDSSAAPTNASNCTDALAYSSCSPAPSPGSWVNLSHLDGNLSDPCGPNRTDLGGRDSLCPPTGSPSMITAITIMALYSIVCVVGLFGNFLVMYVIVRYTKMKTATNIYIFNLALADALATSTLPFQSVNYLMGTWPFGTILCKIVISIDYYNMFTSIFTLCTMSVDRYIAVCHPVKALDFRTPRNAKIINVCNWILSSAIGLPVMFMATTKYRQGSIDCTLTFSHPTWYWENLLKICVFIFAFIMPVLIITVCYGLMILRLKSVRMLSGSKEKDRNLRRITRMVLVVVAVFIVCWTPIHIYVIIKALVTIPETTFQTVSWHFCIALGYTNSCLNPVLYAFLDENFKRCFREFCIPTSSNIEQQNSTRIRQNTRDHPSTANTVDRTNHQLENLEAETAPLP
T2 sequence (P41143 whole entry): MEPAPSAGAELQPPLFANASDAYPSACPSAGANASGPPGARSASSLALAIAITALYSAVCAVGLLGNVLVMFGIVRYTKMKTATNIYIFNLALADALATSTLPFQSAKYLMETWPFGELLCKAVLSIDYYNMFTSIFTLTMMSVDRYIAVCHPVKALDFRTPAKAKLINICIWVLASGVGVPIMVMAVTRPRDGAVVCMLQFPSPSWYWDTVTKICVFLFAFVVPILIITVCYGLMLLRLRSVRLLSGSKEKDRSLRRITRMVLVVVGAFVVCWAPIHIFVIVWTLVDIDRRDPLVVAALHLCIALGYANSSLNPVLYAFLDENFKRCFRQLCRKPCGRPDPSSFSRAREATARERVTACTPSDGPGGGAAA
T3 sequence (P41145 whole entry): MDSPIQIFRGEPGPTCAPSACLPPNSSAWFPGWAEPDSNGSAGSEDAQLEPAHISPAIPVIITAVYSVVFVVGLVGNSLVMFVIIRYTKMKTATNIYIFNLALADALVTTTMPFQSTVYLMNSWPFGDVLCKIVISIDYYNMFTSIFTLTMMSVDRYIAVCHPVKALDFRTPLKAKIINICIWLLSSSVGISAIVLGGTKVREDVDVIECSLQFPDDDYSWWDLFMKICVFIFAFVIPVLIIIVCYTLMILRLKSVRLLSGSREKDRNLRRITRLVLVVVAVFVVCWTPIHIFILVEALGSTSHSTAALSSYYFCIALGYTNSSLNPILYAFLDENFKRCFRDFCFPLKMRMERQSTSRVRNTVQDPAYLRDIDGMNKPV

SMILES | inhibition [1] [%] | inhibition [2] [%] | inhibition [3] [%] | inhibition [4] [%] | inhibition [5] [%] | inhibition [6] [%] | pKi [7] | pKi [8] | Ratio Ki [9] | pKi [10] | Ratio Ki [11] | Ratio IC50 [12] | pIC50 [13] | pIC50 [14] | pIC50 [15] | Ratio IC50 [16]
O=C(NO)c1ccc(Oc2ccc(CN3CCCC3c3ccc(Cl)cc3)cc2)c(F)c1 (stereo not given) | 25.8 | 25.6 | 46.1 | 74.3 | 0 | 34.4 |  |  |  |  |  |  |  |  |  | 
O=c1[nH]oc2c(Cl)c(Oc3ccc(CN4CCCC4c4ccc(Cl)cc4)cc3)ccc12 (stereo not given) | 41.1 | 23.9 | 0 | 0 | 21.7 | 52.2 |  |  |  |  |  |  |  |  |  | 
O=c1[nH]oc2c(F)c(Oc3ccc(CN4CCCC4c4cccc(F)c4)cc3)ccc12 (stereo not given) | 0 | 20.7 | 0 | 24.8 | 0 | 52.5 |  |  |  |  |  |  |  |  |  | 
Cc1cc(C)cc(C2CCCN2Cc2ccc(Oc3ccc4c(=O)[nH]oc4c3)cc2)c1 (stereo not given) | 74 | 33.9 | 70.6 | 91.6 | 49.4 | 54.8 | 5.83 | 5.85 | 3.5 | 5.30 | 1 |  |  |  |  | 
COc1ccc(C2CCCN2Cc2ccc(Oc3ccc4c(=O)[nH]oc4c3F)cc2)cc1 (stereo not given) | 41 | 23.7 | 0 | 19.1 | 19.2 | 49.7 |  |  |  |  |  |  |  |  |  | 
O=C(NO)c1ccc(Oc2ccc(CN3CCCC3c3cccc(F)c3)cc2)c(F)c1 (stereo not given) | 73.2 | 16.8 | 45.8 | 80.6 | 25.8 | 28.4 | 5.55 | 6.30 | > 20 | < 5.00 | 4.6 |  |  |  |  | 
O=C(NO)c1ccc(Oc2ccc(CN3CCCC3c3ccccc3)cc2)cc1 (stereo not given) | 45.9 | 0 | 51.6 | 85.3 | 21.9 | 13.8 |  |  |  |  |  |  |  |  |  | 
Cc1cc(C)cc(C2CCCN2Cc2ccc(Oc3ccc4c(=O)[nH]oc4c3)c(F)c2)c1 (stereo not given) | 9.5 | 0 | 37.2 | 85.2 | 0 | 10.7 |  |  |  |  |  |  |  |  |  | 
O=c1[nH]oc2cc(Oc3ccc(CN4CCCC4c4ccc(Cl)cc4)cc3)ccc12 (stereo not given) | 54.5 | 15.7 | 57.6 | 83.5 | 47 | 35.9 |  |  |  |  |  |  |  |  |  | 
COc1ccc(C2CCCN2Cc2ccc(Oc3ccc4c(=O)[nH]oc4c3Cl)cc2)cc1 (stereo not given) | 32.2 | 18 | 18.8 | 39.9 | 17.7 | 39.3 |  |  |  |  |  |  |  |  |  | 
Cc1cc(C)cc(C2CCCN2Cc2ccc(Oc3ccc4c(=O)[nH]oc4c3F)cc2)c1 (stereo not given) | 21.1 | 0 | 0 | 36.4 | 0 | 33.3 |  |  |  |  |  |  |  |  |  | 
COc1cccc(C2CCCN2Cc2ccc(Oc3ccc4c(=O)[nH]oc4c3Cl)cc2)c1 (stereo not given) | 0 | 19.7 | 0 | 0 | 0 | 60.6 |  |  |  |  |  |  |  |  |  | 
O=c1[nH]oc2c(Cl)c(Oc3ccc(CN4CCCC4c4cccc(Cl)c4)cc3)ccc12 (stereo not given) | 32.5 | 0 | 0 | 45.4 | 19.2 | 44.9 |  |  |  |  |  |  |  |  |  | 
COc1cccc(C2CCCN2Cc2ccc(Oc3ccc4c(=O)[nH]oc4c3F)cc2)c1 (stereo not given) | 6.2 | 0 | 9.7 | 29 | 0 | 28.4 |  |  |  |  |  |  |  |  |  | 
O=c1[nH]oc2c(F)c(Oc3ccc(CN4CCCC4c4ccc(Cl)cc4)cc3)ccc12 (stereo not given) | 35.8 | 0 | 0 | 39.2 | 22.5 | 9.6 |  |  |  |  |  |  |  |  |  | 
O=c1[nH]oc2c(F)c(Oc3ccc(CN4CCCC4c4cccc(Cl)c4)cc3)ccc12 (stereo not given) | 0 | 0 | 20 | 57.2 | 0 | 38.2 |  |  |  |  |  |  |  |  |  | 
COc1ccc(C2CCCN2Cc2ccc(Oc3ccc(C(=O)NO)cc3)cc2)cc1 (stereo not given) | 40.4 | 3.9 | 52.3 | 86 | 12.8 | 24.4 | 5.64 | 6.74 | > 55.5 | < 5.00 | 12.8 | 1.1 | 6.75 | 6.70 | < 5.30 | > 28
COc1ccc(C2CCCN2Cc2ccc(Oc3ccc4c(=O)[nH]oc4c3)cc2)cc1 (stereo not given) | 50.6 | 33.3 | 55.7 | 66.9 | 42.2 | 40.7 |  |  |  |  |  |  |  |  |  | 
O=c1[nH]oc2c(Cl)c(Oc3ccc(CN4CCCC4c4cccc(F)c4)cc3)ccc12 (stereo not given) | 0 | 8.5 | 0 | 16.2 | 0 | 37.9 |  |  |  |  |  |  |  |  |  | 
Cc1cc(C)cc(C2CCCN2Cc2ccc(Oc3ccc4c(=O)[nH]oc4c3F)c(Cl)c2)c1 (stereo not given) | 45.7 | 18 | 20.1 | 47.4 | 21.4 | 32.9 |  |  |  |  |  |  |  |  |  | 
COc1ccc(C2CCCN2Cc2ccc(Oc3ccc(C(=O)NO)cc3F)cc2)cc1 (stereo not given) | 43.1 | 6.2 | 34.9 | 77.4 | 11 | 15.8 |  |  |  |  |  |  |  |  |  | 
Cc1cc(C)cc(C2CCCN2Cc2ccc(Oc3ccc(C(N)=O)cc3F)cc2)c1 (racemic) | 87.2 | 49.5 |  |  | 52.7 |  | 7.03 | 7.85 | 7.5 | 6.98 | 6.7 | 3.8 | 8.11 | 7.53 | 6.96 | 14.1
O=C(NO)c1ccc(Oc2ccc(CN3CCCC3c3cccc(Cl)c3)cc2)c(F)c1 (stereo not given) | 57.3 | 0 | 30.9 | 54.7 | 16.5 | 26.4 |  |  |  |  |  |  |  |  |  | 
Cc1cc(C)cc(C2CCCN2Cc2ccc(Oc3ccc4c(=O)[nH]oc4c3)c(Cl)c2)c1 (stereo not given) | 9.8 | 0 | 23.8 | 69.8 | 0 | 16.9 |  |  |  |  |  |  |  |  |  | 
Cc1cc(C)cc(C2CCCN2Cc2ccc(Oc3ccc4c(=O)[nH]oc4c3Cl)cc2)c1 (stereo not given) | 0 | 0 | 0 | 11.6 | 0 | 22.3 |  |  |  |  |  |  |  |  |  | 
COc1cccc(C2CCCN2Cc2ccc(Oc3ccc(C(=O)NO)cc3F)cc2)c1 (stereo not given) | 64.4 |  | 42.5 | 80.4 | 22.6 |  |  |  |  |  |  |  |  |  |  | 
Cc1cc(C)cc(C2CCCN2Cc2ccc(Oc3ccc4c(=O)[nH]oc4c3F)c(F)c2)c1 (stereo not given) | 37.3 | 17.2 | 26.7 | 56.9 | 9.4 | 49.3 |  |  |  |  |  |  |  |  |  | 
COc1cc(CN2CCCC2c2cc(C)cc(C)c2)ccc1Oc1ccc2c(=O)[nH]oc2c1 (stereo not given) | 59.2 | 11.6 | 38.4 | 73.2 | 14.3 | 49.1 |  |  |  |  |  |  |  |  |  | 
Cc1cc(C)cc(C2CCCN2Cc2ccc(Oc3ccc(C(=O)NO)cc3)cc2)c1 (stereo not given) | 36 | 0 | 39.5 | 84.7 | 10.7 | 6.5 |  |  |  |  |  |  |  |  |  | 
COc1cccc(C2CCCN2Cc2ccc(Oc3ccc(C(=O)NO)cc3)cc2)c1 (stereo not given) | 31.6 | 0 | 33.8 | 84.3 | 13.5 | 7.1 |  |  |  |  |  |  |  |  |  | 
